The record followed here is patent US9540343B2 (Gilead Sciences, Inc., priority 2011, dated 2017).

The nature of one data set: in vitro. In outline:
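Cytoprotection read-out: CellTiter-Glo chemiluminescence after 5 days at 37 °C of HIV-IIIb-infected MT-4 cells (m.o.i. 0.003) with compound in 10-point 3-fold dilutions, quadruplicate, 10% FBS. Cytotoxicity (CC50) measured identically without virus.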

The next data set relates to HIV-IIIb. The data set can be described thus: Test A: Antiviral assay in MT4 cells. In kind it is cell-based, HIV-1. Particulars: Human immunodeficiency virus 1, IIIB, MT4, 120 h, read-out: % inhibition at 2 μM, percent inhibition of virus-induced cell killing, from dose response curve at 2 uM drug; MT-4 cells infected with HIV-IIIb, 5 days, CellTiter-Glo. Background: In ATP-based viability assays light output follows the ATP content of the culture.

Setting [1] is: human, uninfected MT-4 cells, CC50 (nM), same protocol as Test A, CellTiter-Glo.

As for `Cc1ccccc1-c1ccnc(C(Cc2cc(F)cc(F)c2)NC(=O)Cn2nc(C(F)(F)F)c3c2CCCC3)n1` (stereo not shown) [Example 12, N-(2-(3,5-difluorophenyl)-1-(4-o-tolylpyrimidin-2-yl)ethyl)-2-(3-(trifluoromethyl)-4,5,6,7-tetrahydro-1H-indazol-1-yl)acetamide], the CC50 at 5 days in the data set “in vitro” (setting [1]) stood at 8980 nM. The inhibition at 2 µM in the data set on HIV-IIIb came to 0%.

For `Cc1cc2ncn(CC(=O)N[C@@H](Cc3cc(F)cc(F)c3)c3ncccc3-c3cccc(S(=O)(=O)NC4CC4)c3)c2cc1C` [Example 353B, (S)—N-(1-(3-(3-(N-cyclopropylsulfamoyl)phenyl)pyridin-2-yl)-2-(3,5-difluorophenyl)ethyl)-2-(5,6-dimethyl-1H-benzo[d]imidazol-1-yl)acetamide], the CC50 at 5 days in “in vitro” (setting [1]) was 12700 nM. In addition, the inhibition at 2 µM in the data set with HIV-IIIb amounted to 110%.

`O=C(Cc1c[nH]c2ccc(F)cc12)N[C@@H](Cc1cc(F)cc(F)c1)c1ncccc1-c1cccc(C(=O)NC2CC2)c1` [Example 66, (S)—N-cyclopropyl-3-(2-(2-(3,5-difluorophenyl)-1-(2-(5-fluoro-1H-indol-3-yl)acetamido)ethyl)pyridin-3-yl)benzamide] displayed a CC50 at 5 days in the data set “in vitro” (setting [1]) of 16800 nM. In addition, in the data set on HIV-IIIb, the inhibition at 2 µM was -2%.

In the data set “in vitro” (setting [1]), `NC(=O)c1cc(-c2cccnc2[C@H](Cc2cc(F)cc(F)c2)NC(=O)C(CO)c2ccccc2)ccc1F` (stereo partly drawn) [Example 578, 5-(2-((1S)-2-(3,5-difluorophenyl)-1-(3-hydroxy-2-phenylpropanamido)ethyl)pyridin-3-yl)-2-fluorobenzamide] registered a CC50 at 5 days of over 53200 nM. Also, the inhibition at 2 µM with HIV-IIIb was 15%.

Take `O=C(Cn1nc(C(F)F)c2c1C(F)(F)C1CC21)N[C@@H](Cc1cc(F)cc(F)c1)c1ncccc1-c1ccc2nccn2c1` (stereo partly drawn) [Example 438, (S)—N-(1-(3-(imidazo[1,2-a]pyridine-6-yl)-pyridin-2-yl)-2-(3,5-difluorophenyl)ethyl)-2-(3-(difluoromethyl)-5,6-dihydro-4,5-(methano)-6,6-difluoro-cyclopenta[c]pyrazol-1(4H)-yl)acetamide]: in “in vitro” (setting [1]), the CC50 at 5 days was determined as 12100 nM. Further, in the data set with HIV-IIIb, the inhibition at 2 µM amounted to 81%.

Regarding `N#Cc1cccc(-c2cccnc2[C@H](Cc2cc(F)cc(F)c2)NC(=O)Cn2ccc3ccccc32)c1` [Example 95C, (S)—N-(1-(3-(3-cyanophenyl)pyridin-2-yl)-2-(3,5-difluorophenyl)ethyl)-2-(1H-indol-1-yl)acetamide], the midpoint of cytotoxicity in “in vitro” (setting [1]), the CC50 at 5 days, lay at 14600 nM. Further, in the data set with HIV-IIIb, the inhibition at 2 µM stood at 14%.

As to `NC(=O)c1cc(-c2cccnc2C(Cc2cc(F)cc(F)c2)NC(=O)Cn2nc(C(F)F)c3c2C2CC2CC3)ccc1F` (stereo not shown) [Example 392, 5-(2-(1-(2-(3-(difluoromethyl)-5,5a,6,6a-tetrahydrocyclopropa[g]indazol-1(4H)-yl)acetamido)-2-(3,5-difluorophenyl)ethyl)pyridin-3-yl)-2-fluorobenzamide], in the data set “in vitro” (setting [1]), it took 19100 nM to reach half-maximal cytotoxicity (CC50 at 5 days). For the same molecule, in the data set with HIV-IIIb, the inhibition at 2 µM turned out to be 105%.

In the data set “in vitro” (setting [1]), `CC(C)(C)OC(=O)N1C[C@@H](c2ccccc2)C[C@H]1C(=O)N[C@@H](Cc1cc(F)cc(F)c1)c1ncccc1-c1ccc(F)c(C(N)=O)c1` [Example 148, (2S,4R)-tert-butyl 2-((S)-1-(3-(3-carbamoyl-4-fluorophenyl)pyridin-2-yl)-2-(3,5-difluorophenyl)ethylcarbamoyl)-4-phenylpyrrolidine-1-carboxylate] came in with a CC50 at 5 days of 12300 nM. The inhibition at 2 µM with HIV-IIIb amounted to 11%.

Molecule `O=C(Cc1c[nH]c2ccc(F)cc12)N[C@@H](Cc1cc(F)cc(F)c1)c1ncccc1-c1ccnc(-c2nn[nH]n2)c1` [Example 302, (S)—N-(1-(2′-(2H-tetrazol-5-yl)-3,4′-bipyridin-2-yl)-2-(3,5-difluorophenyl)ethyl)-2-(5-fluoro-1H-indol-3-yl)acetamide] gave a CC50 at 5 days in the data set “in vitro” (setting [1]) of 16800 nM. In the data set with HIV-IIIb, the inhibition at 2 µM came out at 0%.

Take `NC(=O)c1cc(-c2cccnc2[C@H](Cc2cc(F)cc(F)c2)NC(=O)Cc2c[nH]c3ccc(F)cc23)ccc1F` [Example 55F, (S)-5-(2-(2-(3,5-difluorophenyl)-1-(2-(5-fluoro-1H-indol-3-yl)acetamido)ethyl)pyridin-3-yl)-2-fluorobenzamide]: the CC50 at 5 days in “in vitro” (setting [1]) was 21600 nM. In the data set with HIV-IIIb, the inhibition at 2 µM is 101%.

Regarding `NC(=O)c1cc(-c2cccnc2[C@H](Cc2cc(F)cc(F)c2)NC(=O)Cn2nc(C(F)(F)F)c3c2CCC2(C3)OCCO2)ccc1F` [Example 468D, (S)-5-(2-(2-(3,5-difluorophenyl)-1-(2-(3′-(trifluoromethyl)-6′,7′-dihydrospiro[[1,3]dioxolane-2,5′-indazole]-1′(4′H)-yl)acetamido)ethyl)pyridin-3-yl)-2-fluorobenzamide], the CC50 at 5 days in “in vitro” (setting [1]) was over 53000 nM. Also, in the data set on HIV-IIIb, the inhibition at 2 µM is 14%.

In turn, `CC(C)(C)C#Cc1cn(CC(=O)N[C@@H](Cc2cc(F)cc(F)c2)c2ncccc2-c2ccc(F)c(C(N)=O)c2)nc1C(F)(F)F` [Example 357, (S)-5-(2-(2-(3,5-difluorophenyl)-1-(2-(4-(3,3-dimethylbut-1-ynyl)-3-(trifluoromethyl)-1H-pyrazol-1-yl)acetamido)ethyl)pyridin-3-yl)-2-fluorobenzamide] displayed a cytotoxic concentration (CC50) at 5 days in “in vitro” (setting [1]) of 8820 nM. The inhibition at 2 µM in the data set on HIV-IIIb was found to be 0%.

With `CC1(O)CCCc2c(C(F)(F)F)nn(CC(=O)N[C@@H](Cc3cc(F)cc(F)c3)c3ncccc3-c3ccc(F)c(C(N)=O)c3)c21` (stereo partly drawn) [Example 356, 5-(2-((1S)-2-(3,5-difluorophenyl)-1-(2-(7-hydroxy-7-methyl-3-(trifluoromethyl)-4,5,6,7-tetrahydro-1H-indazol-1-yl)acetamido)ethyl)pyridin-3-yl)-2-fluorobenzamide], in the data set “in vitro” (setting [1]), the CC50 at 5 days worked out at 20600 nM. Further, the inhibition at 2 µM in the data set with HIV-IIIb turned out to be 76%.

For `CCc1cccc2c(C(C)=O)cn(CC(=O)N[C@@H](Cc3cc(F)cc(F)c3)c3ncccc3-c3ccc(F)c(C(N)=O)c3)c12` [Example 509, (S)-5-(2-(1-(2-(3-acetyl-7-ethyl-1H-indol-1-yl)acetamido)-2-(3,5-difluorophenyl)ethyl)pyridin-3-yl)-2-fluorobenzamide], it took 24600 nM to reach half-maximal cytotoxicity in “in vitro” (human, CC50 (nM), uninfected MT-4 cells, same protocol as Test A, CellTiter-Glo) (CC50 at 5 days). Besides, in the data set with HIV-IIIb, the inhibition at 2 µM is 48%.

Consider `Cc1cc2cn(CC(=O)N[C@@H](Cc3cc(F)cc(F)c3)c3ncccc3-c3ccc(F)c(C(N)=O)c3)nc2cc1C` [Example 583, (S)-5-(2-(2-(3,5-difluorophenyl)-1-(2-(5,6-dimethyl-2H-indazol-2-yl)acetamido)ethyl)pyridin-3-yl)-2-fluorobenzamide], for which the CC50 at 5 days in “in vitro” (setting [1]) was found to be 23200 nM. Also, in the data set on HIV-IIIb, the inhibition at 2 µM came out at 28%.

Consider `CC(C)(C)OC(=O)N1CCOC[C@@H]1C(=O)N[C@@H](Cc1cc(F)cc(F)c1)c1ncccc1-c1ccc(F)c(C(N)=O)c1` [Example 133, (R)-tert-butyl 3-((S)-1-(3-(3-carbamoyl-4-fluorophenyl)pyridin-2-yl)-2-(3,5-difluorophenyl)ethylcarbamoyl)morpholine-4-carboxylate], for which the CC50 at 5 days in the data set “in vitro” (setting [1]) is over 53000 nM. Moreover, in the data set with HIV-IIIb, the inhibition at 2 µM was 1%.

In turn, `NCc1ccc2c(CC(=O)N[C@@H](Cc3cc(F)cc(F)c3)c3ncccc3-c3cccc(C(N)=O)c3)c[nH]c2c1` [Example 584, (S)-3-(2-(1-(2-(6-(aminomethyl)-1H-indol-3-yl)acetamido)-2-(3,5-difluorophenyl)ethyl)pyridin-3-yl)benzamide] yielded a CC50 at 5 days in “in vitro” (setting [1]) of 7250 nM. Moreover, the inhibition at 2 µM in the data set on HIV-IIIb stood at 93%.

As usually defined, the CC50 is the concentration at which the toxic effect on the cells reaches its halfway point. What is called inhibition is the drop in the measured response relative to a control, in per cent.
